A word on the MIC: it is the smallest concentration in the dilution series that meets the test's criterion for growth inhibition.

“Also recorded” adds a separate entry of the source.

One assay relates to Pseudomonas aeruginosa. Briefly: Ceftobiprole susceptibility with compound, Pseudomonas aeruginosa. It is filed as cell-based. Conditions: not shown. As to the method: As a means to further evaluate whether the compound affects PBP4 activity a series of assays were performed.
Another assay has as its system S. aureus USA300. Briefly: µSiM-CA membrane transmigration. It is filed as cell-based, Staphylococcus aureus. As to the method:
Thus, we tested 9314848 for its ability to eliminate S. aureus migration through µSiM-CA membrane pores. […] Conversely, the USA300∆pbp4 strain was unable to efficiently transverse the membrane, verifying that PBP4 is required for S. aureus membrane transmigration, as previously reported. To evaluate whether 9314848 is capable of eliminating PBP4-associated S. aureus µSiM-CA membrane migration, 1 × 10^7 CFU wild type cells were incubated with 0, 3.125, 6.25, 12.5, or 25 µM of the compound for 2 h then applied to the top chamber of the device. Following incubation, cells in the top and bottom chambers were enumerated.
The effect of PBP4 inhibitors on S. aureus migration through 500 nm nanoporous membranes modeling the orifices of osteocyte lacuno-canalicular networks was investigated using a µSiM-CA device, as previously described. Briefly, µSIM-CA systems were fabricated by SiMPore Inc. (West Henrietta, NY, USA) to include a top and a bottom chamber that were separated by 400 nm thick silicon nitride membrane containing an array of 500 nm pores, allowing for quantification of bacteria that migrate from the apical (top) well to the basal (bottom) well. To measure bacterial migration through the device membrane, S. aureus strains USA300 or USA300∆pbp4 were grown overnight at 37 °C with aeration, diluted (1:100) in fresh MH media, and then grown to mid-exponential phase (OD600nm = 0.2) in the presence or absence of putative PBP4 inhibitor for approximately 2 h at 37 °C shaking with aeration. A total of 100 µL of cell mixture (~1 × 10^7 CFU) was transferred into the top reservoir of the device and incubated for 6 h at 37 °C. A total of 10 µL of media from the apical and basal reservoirs was collected, serial diluted in 0.8% NaCl, and plated on MH agar plates for bacterial enumeration.

The next assay relates to S. aureus strain CRB. Briefly: Fractional inhibitory concentration checkerboard, ceftobiprole + putative PBP4 inhibitor, strain CRB. The format is cell-based, Staphylococcus aureus. As to the method: Fractional inhibitory testing was performed in checkerboard format to determine whether putative PBP4 inhibitors potentiated the antimicrobial effects of β-lactams toward S. aureus strains USA300 and CRB, as previously described. To do so, in triplicate 10^5 CFU of each strain (10 µL) was added to individual wells of a microtiter plate containing 90 µL MH media. […] Plates were incubated at 37 °C for 16–20 h and the lowest concentration of each test agent that inhibited bacterial growth alone or in combination was determined by the naked eye. The fractional inhibitory concentration (FIC) index was calculated using the formula: FIC of A (MIC of drug A in combination/MIC of drug A alone) + FIC B ([…]/MIC of drug B alone). A synergistic interaction was defined as a FICI value of less than 0.5, an additive interaction was defined as a FICI value between 0.5 and 1.0, an indifferent interaction was defined as a FICI value between 1.0 and 4.0, and an antagonistic interaction was defined as a FICI value of more than 4.0 [46].

The test system of assay [1] is pbp4 expression in S. aureus CRB. The experiment in a line: qRT-PCR of pbp4 transcript titers, CRB. The format is cell-based, Staphylococcus aureus. To be noted: 25 µM compound, 3 h. An excerpt:
Given that each of the six compounds appeared to affect PBP4-mediated antibiotic resistance, we considered that their effects may be modulated by either inhibiting the protein’s function or by reducing pbp4 expression, the latter of which may be readily overcome by regulatory mutations that could in-turn easily result in resistance. Thus, we sought to prioritize compounds that may affect the protein’s function and de-prioritize compounds that affect the protein’s expression. Quantitative real-time reverse transcriptase PCR (qRT-PCR) was used to measure the pbp4 transcript titers within USA300 and CRB cells following compound treatment (Figure 2). […] We chose to focus the remainder of our studies on 9314848 (Figure 3A) because the molecule appeared the more druggable and chemically tractable for downstream structure activity relationship studies.
PBP4 transcript titers of bacterial cells exposed to putative PBP4 inhibitors were measured using real time quantitative PCR (RT-qPCR), as previously described. […] Bacterial RNA was amplified and measured using PerfeCTa SYBR Green FastMix and qScript cDNA SuperMix kits following the manufacturer’s recommendations (QuantaBio, Beverly, MA, USA). […]
On the technique in general: In qPCR the cycle at which signal appears reflects the starting amount.

Take `CC1CCN(C(=O)c2cccc(NC(=O)Nc3ccc(Cl)cc3)c2)CC1` [Compound 9314848]: the “Effect on ceftobiprole susceptibility” value with Pseudomonas aeruginosa is “no effect”. Moreover, the “Viability of cells within the top/treatment chamber” value in the assay on S. aureus USA300 (0-25 µM compound) is recorded as “did not affect the viability”. Besides, the “Effect on S. aureus membrane transmigration” value is reported as “completely inhibited” in the assay on S. aureus USA300 (concentrations greater than 6.25 µM (2.5 µg/mL)) and “no effect” in the assay with S. aureus USA300 (≤3.125 µM). Moreover, the MIC in the assay with S. aureus strain CRB (Staphylococcus aureus, read-out: CRB Alone Cmpd (putative PBP4 inhibitor MIC alone)) amounted to 400 µM. Besides, the “CRB Combination BPR (ceftobiprole MIC in combination)” value in the assay with S. aureus strain CRB (strain CRB, ceftobiprole combined with the indicated putative PBP4 inhibitor) was determined as 8 µg/mL. Also, the “CRB Combination Cmpd (compound concentration in combination)” value in the assay with S. aureus strain CRB (strain CRB, compound combined with ceftobiprole) came to 25 µM. In addition, the “CRB Fold-decrease in ceftobiprole resistance in combination” value with S. aureus strain CRB (strain CRB, in combination with the indicated putative PBP4 inhibitor) worked out at 16 fold. Moreover, the “pbp4 expression (mRNA titer, qRT-PCR)” value in assay [1] was “did not seem to affect pbp4 expression; also recorded: did not significantly impact pbp4 transcription”.

The values are drawn from article PMC9598407, “Identification of Staphylococcus aureus Penicillin Binding Protein 4 (PBP4) Inhibitors” (Antibiotics, 2022).
